pIC50: −log10 of the molar value. Structures can show the parent of a compound that is named as a salt. Where two headings read alike, the source gives them in different places.
System: 5-Lipoxygenase
Assay: Inhibition of leukotriene biosynthesis in vitro: calcium ionophore-induced LTB4 formation in human polymorphonuclear leukocytes (PMNL)
Format: cell-based
Conditions: calcium ionophore 8.3 μM, 15 min preincubation, 37 °C; for % I, In Vitro Inhibitory Potencies Against 5-Lipoxygenase from Stimulated LTB4 Formation in Human Polymorphonuclear Leukocytes: @ 0.10 μM; for pIC50: read-out: IC50, In Vitro Inhibitory Potencies Against 5-Lipoxygenase from Stimulated LTB4 Formation in Human Polymorphonuclear Leukocytes
Procedure: Inhibition of leukotriene biosynthesis was evaluated in vitro using an assay involving calcium ionophore-induced LTB4 expressed in human (PMNL). Human PMNL isolated from heparinized (20 USP units/mL) venous blood (25 mL) obtained from healthy volunteers was layered over an equal volume of Ficoll-Hypaque Mono-Poly Resolving Medium (ICN Flow, Costa Mesa, Calif.) and centrifuged at 400×g for 40 min at 20° C. The PMNL was collected, erythrocytes lysed and washed 2× and suspended at 1.0×10^7 cells/mL in Earle's balanced salt solution with 17 mM Earle's HEPES. Aliquots of the cell suspension were preincubated with test compounds dissolved in DMSO (final concentration <2%) for 15 min. and stimulated with calcium ionophore (final concentration 8.3 μM) for 10 min. at 37 ° C. Incubations were stopped with the addition of two volumes of ice-cold methanol followed by centrifuging the cell suspensions at 4° C. for 10 rain at 450×g. The mount of LTB4 in the methanol extract was analyzed by enzyme-linked immunoassay or by HPLC analysis.

SMILES	pIC50 (sodium salt)	% I, In Vitro Inhibitory Potencies Against 5-Lipoxygenase from Stimulated LTB4 Formation in Human Polymorphonuclear Leukocytes	other results
CC(CCC(=O)O)(c1ccc(OCc2ccc3ccccc3n2)cc1)c1ccc(OCc2nc3ccccc3s2)cc1 (centres unmarked) [Example 1, 4-(4-(2-benzothiazolylmethoxy)phenyl)-4-(4-(2-quinolylmethoxy)phenyl)pentanoic acid]		95%	
CC(CCC(=O)O)(c1ccc(OCc2ccc3ccccc3n2)cc1)c1ccc(OCc2nc3ccccc3s2)cc1 (centres unmarked) [Example 2, 4-(4-(2-benzothiazolylmethoxy)phenyl)-4-(4-(2-quinolylmethoxy)phenyl)pentanoic acid sodium salt]			pIC50: 7.28
CC(CCC(=O)O)(c1ccc(OCc2ccc3ccccc3c2)cc1)c1ccc(OCc2ccc3ccccc3n2)cc1 (centres unmarked) [Example 3, 4-(4-(2-naphthylmethoxy)phenyl)-4-(4-(2-quinolylmethoxy)phenyl)pentanoic acid]		93%	

Now from value to compound, other results behind:

pIC50 (sodium salt)	SMILES	% I, In Vitro Inhibitory Potencies Against 5-Lipoxygenase from Stimulated LTB4 Formation in Human Polymorphonuclear Leukocytes	other results
7.10	Cn1c(COc2ccc(C(C)(CCC(=O)O)c3ccc(OCc4ccc5ccccc5n4)cc3)cc2)nc2ccccc21 (centres unmarked) [Example 5, 4-(4-(2-(1-methyl)benzimidazolylmethoxy)phenyl)-4-(4-(2-quinolylmethoxy)phenyl)pentanoic acid sodium salt]		
7.05	Cn1c(COc2ccc(C(C)(CCC(=O)O)c3ccc(OCc4ccc5ccccc5n4)cc3)cc2)nc2ccccc21 (centres unmarked) [Example 6, 4-(4-(2-(1-methyl)benzimidazolylmethoxy)phenyl)-4-(4-(2-quinolylmethoxy)phenyl)pentanoic acid sodium salt]		
